Source: US5891458A, “Bioerodible device for administering active ingredients” (priority 1997, dated 1999)

Experiments:
diestrus rat = assay: In-vivo delivery study of histrelin buccal device: induction of ovulation in the diestrus rat; conditions: for ED50 dose (inducing ovulation): buccal tablet
Protocol: The study was designed to measure the ability of the histrelin delivered by the soluble buccal devices of the invention to induce ovulation in the diestrus rat. Devices were prepared by punching 7 mm tablets from the tray containing the lyophilized foam. Each tablet theoretically contained 297 ug of histrelin. Whole, halved and quartered tablets were then placed in the buccal cavity of diestrus rats anesthetized with ether. After 10 minutes the device was absorbed. The following day the rats were sacrificed and the oviducts removed and examined for the presence of ova.

[1] = parameters: species or system Sprague-Dawley rats; conditions: rat, in vivo
Protocol: The devices prepared in Example 2 were evaluated in ovariectomized Sprague-Dawley rats. The rats were ovariectomized 2 weeks prior to testing. On the test day the animals were anesthetized with ether and administered with either 10 ug of 17 B-estradiol in sesame oil [0.2 ml by subcutaneous (S.C.) or ingestion (I.G.) routes] or a soluble device containing an equal amount of estradiol placed buccally. Animals were kept anesthetized for approximately 10 minutes after estradiol administration. Trunk blood was collected at various times thereafter.

[2] = half buccal tablet, histrelin 150 ug
[3] = quarter buccal tablet, histrelin 75 ug
[4] = whole buccal tablet, histrelin 300 ug

Row | Compound | time after which the device was absorbed (diestrus rat; buccal cavity of anesthetized diestrus rats) [min] | ED50 dose (inducing ovulation) (diestrus rat; per body weight) [mg/kg] | ED50 dose (inducing ovulation) (diestrus rat; per rat) | inducing ovulation (result in words) (diestrus rat; buccal tablets) | # of Rats Ovulating/Total # of Rats (diestrus rat; [2]) | Ova/Rat (diestrus rat; [2]) | # of Rats Ovulating/Total # of Rats (diestrus rat; [3]) | Ova/Rat (diestrus rat; [3]) | # of Rats Ovulating/Total # of Rats (diestrus rat; [4]) | Ova/Rat (diestrus rat; [4]) | bioavailability of estradiol administered buccally [1]
1 | CCNC(=O)[C@@H]1CCCN1C(=O)[C@H](CCCNC(=N)N)NC(=O)[C@H](CC(C)C)NC(=O)[C@@H](Cc1cn(Cc2ccccc2)cn1)NC(=O)[C@H](Cc1ccc(O)cc1)NC(=O)[C@H](CO)NC(=O)[C@H](Cc1c[nH]c2ccccc12)NC(=O)[C@H](Cc1cnc[nH]1)NC(=O)[C@@H]1CCC(=O)N1 [Histrelin] | 10 | ~0.3 | approximately 75 ug/rat | effective in inducing ovulation in a dose-dependent manner | 4/5 | 8 | 4/6 | 6 | 6/6 | 13 | –
2 | C[C@]12CC[C@@H]3c4ccc(O)cc4CC[C@H]3[C@@H]1CC[C@@H]2O [Estradiol, 17 B-estradiol] | – | – | – | – | – | – | – | – | – | – | greater than oral administration but less than administered by injection
